Our source for the inhibition and IC50 values is patent US6495604B1, “Cycloalkene derivatives, process for producing the same, and use” (Takeda Chemical Industries, Ltd., priority 1998, dated 2002).

By inhibition is commonly meant the drop in the measured response relative to a control, in per cent. In general, IC50 refers to the concentration at which inhibition is half-maximal.

The test system of one assay is blood nitric oxide concentration (NOx). Nature of the assay: Effect on increase in blood nitric oxide level (LPS-treated mice). The assay is classed as in vivo, BALB/c mice. The conditions noted are these: Mus musculus; 30 mg/kg orally 1 hour before LPS 10 mg/kg i.p.; serum nitrite+nitrate 6 hours after LPS; vs control group; read-out: Inhibition % of NO in blood.
`CCOC(=O)C1=CCCCC1S(=O)(=O)Nc1ccc(F)cc1F` (stereo not shown) [Compound 3, ethyl 6-[N-(2,4-difluorophenyl)sulfamoyl]-1-cyclohexene-1-carboxylate]: the inhibition at 30 mg/kg was found to be 90%.

A further assay deals with NO production by RAW264.7 cell. Nature of the assay: NO production-inhibiting effect in RAW264.7 cells (nitrite ion by DAN fluorescence). The assay is classed as cell-based, mouse. Conditions: Mus musculus, RAW264.7, RAW264.7; LPS 5 ng/ml + interferon gamma 1 U/ml; nitrite ion in culture supernatant after overnight incubation. Here is the method:
Mouse macrophage cell line RAW264.7 was used as an iNOS-inducible cell and a test compound was examined for its % inhibition of NO production. The test compound was dissolved at 10 mM in N,N-dimethylformamide and diluted with an RPMI-1640 medium at the concentration of 0.1 mM. The concentration was further adjusted using the medium so that a final concentration ranging from 10 μM to 10 nM could be obtained by a 10-fold serial dilution and the test compound was added to a culture medium. On the day before the experiment, the cell was adjusted at 5×10^5/ml in an RPMI-1640 medium supplemented with 10% inactivated fetal calf serum and inoculated to a 96-well microplate at 1×10^5 cells/0.2 ml per well. After incubating at 37° C. under an atmosphere of 5% CO2/95% air overnight, the test compound adjusted as described above was added and then LPS and interferon gamma were added at the final concentrations of 5 ng/ml and 1 U/ml, respectively. After further incubating overnight, culture supernatants were examined for the concentration of nitrite ion (stable metabolite of NO) which was used as an index for the NO production. The nitrite ion concentration was determined by adding 25 μl of 20 μg/ml of 2,3-diaminonaphthalene (DAN) to 50 μl of the culture supernatant, followed by incubating at room temperature for 10 minutes, followed by adding 25 μl of 0.5 N NaOH, followed by determining a fluorescence at 450 nm (excitation wavelength: 365 nm). An IC50 represents the concentration of the test compound which inhibits 50% of the NO production.
In the case of `CCOC(=O)C1=CCCCC1S(=O)(=O)Nc1cccc(Cl)c1Cl` (stereo not shown) [Compound 38, ethyl 6-[N-(2,3-dichlorophenyl)sulfamoyl]-1-cyclohexene-1-carboxylate], the IC50 was 0.041 µM.
Same read-out and setting: then `CCOC(=O)C1=CCCCC1S(=O)(=O)Nc1ccc(-n2nccn2)cc1` (stereo not shown) [Compound 40, ethyl 6-[N-[4-(2H-1,2,3-triazol-2-yl)phenyl)sulfamoyl]-1-cyclohexene-1-carboxylate], with 2.5 µM.
On the same count and under the same terms, then `CCOC(=O)C1=CCCCC1S(=O)(=O)Nc1cc(Cl)ccc1Cl` (stereo not shown) [Compound 41, ethyl 6-[N-(2,5-dichlorophenyl)sulfamoyl]-1-cyclohexene-1-carboxylate], with 0.24 µM; and `CCOC(=O)C1=CCCCC1S(=O)(=O)Nc1ccccc1OC(F)(F)F` (stereo not shown) [Compound 42, ethyl 6-[N-(2-trifluoromethoxyphenyl)sulfamoyl]-1-cyclohexene-1-carboxylate], with 1.1 µM; and `CCOC(=O)C1=CCCCC1S(=O)(=O)Nc1cc(F)c(F)cc1F` (stereo not shown) [Compound 43, ethyl 6-[N-(2,4,5-trifluorophenyl)sulfamoyl]-1-cyclohexene-1-carboxylate], with 0.073 µM.
Still for that read-out and setting: in the case of `CCOC(=O)C1=CCCCC1S(=O)(=O)Nc1ccc(-n2ncnn2)cc1` (stereo not shown) [Compound 44, ethyl 6-[N-[4-(2H-tetrazol-2-yl)phenyl)sulfamoyl]-1-cyclohexene-1-carboxylate] it was 3.7 µM; in that of `CCOC(=O)C1=CCCCC1S(=O)(=O)Nc1ccc(C)cc1Cl` (stereo not shown) [Compound 45, ethyl 6-[N-(2-chloro-4-methylphenyl)sulfamoyl]-1-cyclohexene-1-carboxylate], 0.027 µM; in that of `CCOC(=O)C1=CCCCC1S(=O)(=O)Nc1ccc(F)cc1C` (stereo not shown) [Compound 46, ethyl 6-[N-(4-fluoro-2-methylphenyl)sulfamoyl]-1-cyclohexene-1-carboxylate], 0.054 µM.
With `CCOC(=O)C1=CCCCC1S(=O)(=O)Nc1c(Cl)cccc1Cl` (stereo not shown) [Compound 47, ethyl 6-[N-(2,6-dichlorophenyl)sulfamoyl]-1-cyclohexene-1-carboxylate], the half-inhibitory concentration (IC50) amounted to 0.048 µM.
For the molecule `CCOC(=O)C1=CCCCC1S(=O)(=O)Nc1ccc(-n2cnnn2)cc1` (stereo not shown) [Compound 48, ethyl 6-[N-[4-(1H-tetrazol-1-yl)phenyl)sulfamoyl]-1-cyclohexene-1-carboxylate], the half-inhibitory concentration (IC50) came out at 3.8 µM.
Still for that read-out and setting: in the case of `CCOC(=O)C1=CCCCC1S(=O)(=O)Nc1ccc(-n2ccnn2)cc1` (stereo not shown) [Compound 49, ethyl 6-[N-[4-(1H-1,2,3-triazol-1-yl)phenyl)sulfamoyl]-1-cyclohexene-1-carboxylate] it was 5.6 µM; in that of `CCOC(=O)C1=CCCCC1S(=O)(=O)Nc1ccccc1C(F)(F)F` (stereo not shown) [Compound 50, ethyl 6-[N-(2-trifluoromethylphenyl)sulfamoyl]-1-cyclohexene-1-carboxylate], 2 µM; in that of `CCOC(=O)C1=CCCCC1S(=O)(=O)Nc1ccc(C(=O)OC)cc1` (stereo not shown) [Compound 51, ethyl 6-(N-(4-methoxycarbonylphenyl)sulfamoyl]-1-cyclohexene-1-carboxylate], 4 µM.
On the same count and under the same terms, in the case of `O=C(OCc1ccccc1)C1=CCCCC1S(=O)(=O)Nc1ccc(F)cc1F` (stereo not shown) [Compound 52, benzyl 6-[N-(2,4-difluorophenyl)sulfamoyl]-1-cyclohexene-1-carboxylate] it was 4.3 µM; in that of `CCOC(=O)C1=CCCCC1S(=O)(=O)Nc1ccc(CNC(=NC(=O)OC(C)(C)C)NC(=O)OC(C)(C)C)cc1` (stereo not shown) [Compound 53, ethyl 6-[N-[4-[2,3-bis(t-butoxycarbonyl)guanidinomethyl]phenyl]sulfamoyl]-1-cyclohexene-1-carboxylate], 2.4 µM; in that of `CCOC(=O)C1=CCCCC1S(=O)(=O)Nc1ccc(C(=O)OC)cc1Cl` (stereo not shown) [Compound 54, ethyl 6-[N-(2-chloro-4-methoxycarbonylphenyl)sulfamoyl]-1-cyclohexene-1-carboxylate], 2.3 µM.
Still for that read-out and setting: in the case of `CCOC(=O)C1=CCCCC1S(=O)(=O)Nc1ccc(C#N)cc1Cl` (stereo not shown) [Compound 55, ethyl 6-[N-(2-chloro-4-cyanophenyl)sulfamoyl]-1-cyclohexene-1-carboxylate] it was 3.3 µM.
In the case of `O=C(OCCO)C1=CCCCC1S(=O)(=O)Nc1ccc(F)cc1F` (stereo not shown) [Compound 56, 2-hydroxyethyl 6-[N-(2,4-difluorophenyl)sulfamoyl]-1-cyclohexene-1-carboxylate], the IC50 was determined as 1 µM.
In the case of `CCOC(=O)C1=CCCC1S(=O)(=O)Nc1ccc(F)cc1F` (stereo not shown) [Compound 58, ethyl 5-[N-(2,4-difluorophenyl)sulfamoyl]-1-cyclopentene-1-carboxylate], the half-maximal inhibitory concentration (IC50) came to 0.39 µM.
Still for that read-out and setting: in the case of `CC(C)(C)OC(=O)COC(=O)C1=CCCCC1S(=O)(=O)Nc1ccc(F)cc1F` (stereo not shown) [Compound 59, t-butyl [6-[N-(2,4-difluorophenyl)sulfamoyl]-1-cyclohexen-1-yl]carbonyloxyacetate] it was 0.54 µM; in that of `O=C(O)COC(=O)C1=CCCCC1S(=O)(=O)Nc1ccc(F)cc1F` (stereo not shown) [Compound 60, [6-[N-(2,4-difluorophenyl)sulfamoyl]-1-cyclohexen-1-yl]carbonyloxyacetic acid], 7.9 µM; in that of `CCOC(=O)C1=CCCCCC1S(=O)(=O)Nc1ccc(F)cc1F` (stereo not shown) [Compound 61, ethyl 7-[N-(2,4-difluorophenyl)sulfamoyl]-1-cycloheptene-1-carboxylate], 2.8 µM.
As for `CCOC(=O)C1=CCCCC1S(=O)(=O)Nc1ccc(C(=O)NCC(=O)OC(C)(C)C)cc1Cl` (stereo not shown) [Compound 62, ethyl 6-[N-[2-chloro-4-(N-t-butoxycarbonylmethylcarbamoyl)phenyl]sulfamoyl]-1-cyclohexene-1-carboxylate], the IC50 is 3.8 µM.
Still for that read-out and setting: then `CCOC(=O)CNC(=O)c1ccc(NS(=O)(=O)C2CCCC=C2C(=O)OCC)c(Cl)c1` (stereo not shown) [Compound 63, ethyl 6-[N-[2-chloro-4-(N-ethoxycarbonylmethylcarbamoyl)phenyl]sulfamoyl]-1-cyclohexene-1-carboxylate], with 8.4 µM; and `CCOC(=O)C1=CCCC1S(=O)(=O)Nc1ccc(F)cc1Cl` (stereo not shown) [Compound 64, ethyl 5-[N-(2-chloro-4-fluorophenyl)sulfamoyl]-1-cyclopentene-1-carboxylate], with 0.25 µM; and `CCOC(=O)C1=CCCCCC1S(=O)(=O)Nc1ccc(F)cc1Cl` (stereo not shown) [Compound 65, ethyl 7-[N-(2-chloro-4-fluorophenyl)sulfamoyl]-1-cycloheptene-1-carboxylate], with 0.32 µM.
On the same count and under the same terms, in the case of `CCOC(=O)C1=C(S(=O)(=O)Nc2ccc(F)cc2F)CCC1` [Compound 66, ethyl 2-[N-(2,4-difluorophenyl)sulfamoyl]-1-cyclopentene-1-carboxylate] it was 8.1 µM; in that of `COc1ccc(N2C(=O)C3=C(CCCC3)S2(=O)=O)cc1` [Compound 67, 2-(4-methoxyphenyl)-4,5,6,7-tetrahydro-1,2-benzoisothiazole-3(2H)-one 1,1-dioxide], 6 µM.
On the same count and under the same terms, in the case of `O=C1C2=C(CCCC2)S(=O)(=O)N1c1ccc(F)cc1` [Compound 68, 2-(4-fluorophenyl)-4,5,6,7-tetrahydro-1,2-benzoisothiazol-3(2H)-one 1,1-dioxide] it was 5.1 µM; in that of `O=C1C2=C(CCCC2)S(=O)(=O)N1c1ccc(OCC(F)(F)C(F)(F)F)cc1` [Compound 69, 2-[4-(2,2,3,3,3-pentafluoropropoxy)phenyl]-4,5,6,7-tetrahydro-1,2-benzisothiazol-3(2H)-one 1,1-dioxide], 6.8 µM.
As to `O=C1C2=CCCCC2S(=O)(=O)N1c1ccc(F)cc1F` (stereo not shown) [Compound 70, 2-(2,4-difluorophenyl)-5,6,7,7a-tetrahydro-1,2-benzoisothiazol-3(2H)-one 1,1-dioxide], the IC50 was determined as 0.35 µM.

Still in this assay, the particulars now being: Mus musculus; RAW264.7; LPS 5 ng/ml + interferon gamma 1 U/ml; nitrite ion in culture supernatant after overnight incubation.
On to `CCOC(=O)C1=CCCCC1S(=O)(=O)Nc1ccccc1CC` (stereo not shown) [Compound 39, ethyl 6-[N-(2-ethylphenyl)sulfamoyl]-1-cyclohexene-1-carboxylate], for which the 50% inhibitory concentration (IC50) came to 0.32 µM.

Staying with this assay, now noted: RAW264.7; LPS 5 ng/ml + interferon gamma 1 U/ml; nitrite ion in culture supernatant after overnight incubation.
In the case of `CCOC(=O)C1=CCCCC1S(=O)(=O)Nc1ccc(F)cc1F` (stereo not shown) [Compound 3, ethyl 6-[N-(2,4-difluorophenyl)sulfamoyl]-1-cyclohexene-1-carboxylate], the half-inhibitory concentration (IC50) lay within 0.013 to 0.039 µM.
Same read-out and setting: in the case of `CCOC(=O)C1=CCCCC1S(=O)(=O)Nc1ccc(-n2cncn2)cc1F` (stereo not shown) [Compound 57, ethyl 6-[N-[2-fluoro-4-(IH-1,2,4-triazol-1-yl)phenyl)sulfamoyl]-1-cyclohexene-1-carboxylate] it was 4.6 µM; in that of “d-ethyl 6-[N-(2,4-difluorophenyl)sulfamoyl]-1-cyclohexene-1-carboxylate [Compound 20]”, 0.005 µM.
On the same count and under the same terms, in the case of “ethyl 6-[N-3-fluorophenyl]sulfamoyl)-1-cyclohexene-1-carboxylate [Compound 11]” it was 0.31 µM.
